# Experimental data as given in ChEMBL document CHEMBL1275588, “Role of pfmdr1 amplification and expression in induction of resistance to artemisinin derivatives in Plasmodium falciparum” (Antimicrob Agents Chemother, 2010).
# Activity calls are given as the source filed them. No cut-off for these calls is given here.
# Assays:
# Plasmodium falciparum [1] = assay: Antimalarial activity against Plasmodium falciparum D6 assessed as level of pfmdr1 mRNA expression organism selected on 80 ng/ml of compound by quantitative real-time RT-PCR with respect to wild type; assay type: functional, organism-based
# Plasmodium falciparum [2] = assay: Antimalarial activity against Plasmodium falciparum D6 organism selected on 30 ng/ml compound concentration; assay type: functional, organism-based
# Plasmodium falciparum [3] = assay: Antimalarial activity against Plasmodium falciparum D6 assessed as inhibition of [3H]hypoxanthine uptake organism selected on 80 ng/ml compound concentration; assay type: functional, organism-based
# Plasmodium falciparum [4] = assay: Antimalarial activity against Plasmodium falciparum W2 assessed as inhibition of [3H]hypoxanthine uptake organism selected on 50 ng/mL compound concentration; assay type: functional, organism-based
# Plasmodium falciparum [5] = assay: Antimalarial activity against Plasmodium falciparum W2 organism selected on up to 80 ng/ml compound concentration; assay type: functional, organism-based
# Plasmodium falciparum [6] = assay: Antimalarial activity against Plasmodium falciparum TM91C235 assessed as inhibition of [3H]hypoxanthine uptake organism selected on 50 ng/mL compound concentration; assay type: functional, organism-based
# Plasmodium falciparum [7] = assay: Antimalarial activity against Plasmodium falciparum W2 assessed as level of pfmdr1 mRNA expression organism selected on 80 ng/ml of compound by quantitative real-time RT-PCR with respect to wild type; assay type: functional
# Plasmodium falciparum [8] = assay: Antimalarial activity against Plasmodium falciparum W2 assessed as inhibition of [3H]hypoxanthine uptake; assay type: functional, organism-based
# Plasmodium falciparum [9] = assay: Antimalarial activity against Plasmodium falciparum TM91C235 selected on 30 ng/ml compound concentration; assay type: functional, organism-based
# Plasmodium falciparum [10] = assay: Antimalarial activity against Plasmodium falciparum TM91C235 assessed as inhibition of [3H]hypoxanthine uptake organism selected on 80 ng/mL compound concentration; assay type: functional, organism-based
# Plasmodium falciparum [11] = assay: Antimalarial activity against Plasmodium falciparum D6 harboring 1 copy number of pfmdr1 gene organism selected at up to 80 ng/ml compound concentration; assay type: functional, organism-based
# Plasmodium falciparum [12] = assay: Antimalarial activity against Plasmodium falciparum TM91C235 assessed as inhibition of [3H]hypoxanthine uptake; assay type: functional, organism-based
# Plasmodium falciparum [13] = assay: Antimalarial activity against Plasmodium falciparum D6 assessed as inhibition of [3H]hypoxanthine uptake; assay type: functional, organism-based
# Plasmodium falciparum [14] = assay: Antimalarial activity against Plasmodium falciparum D6 assessed as inhibition of [3H]hypoxanthine uptake organism selected on 50 ng/ml compound concentration; assay type: functional, organism-based
# Plasmodium falciparum [15] = assay: Antimalarial activity against Plasmodium falciparum W2 organism selected on 40 ng/ml compound concentration; assay type: functional, organism-based
# Plasmodium falciparum [16] = assay: Antimalarial activity against Plasmodium falciparum W2 harboring 1 copy number of pfmdr1 gene organism selected at 10 to 30 ng/ml compound concentration; assay type: functional, organism-based
# Plasmodium falciparum [17] = assay: Antimalarial activity against Plasmodium falciparum W2 harboring 3 copy number of pfmdr1 gene organism selected at 120 ng/ml compound concentration; assay type: functional, organism-based
# Plasmodium falciparum [18] = assay: Antimalarial activity against Plasmodium falciparum TM91C235 harboring 3 copy number of pfmdr1 gene organism selected at 80 ng/ml compound concentration; assay type: functional, organism-based
# Plasmodium falciparum [19] = assay: Antimalarial activity against Plasmodium falciparum W2 harboring 3 copy number of pfmdr1 gene organism selected at 80 ng/ml compound concentration; assay type: functional, organism-based
# Plasmodium falciparum [20] = assay: Antimalarial activity against Plasmodium falciparum TM91C235 harboring 2 copy number of pfmdr1 gene organism selected at 10 to 50 ng/ml compound concentration; assay type: functional, organism-based
# Plasmodium falciparum [21] = assay: Antimalarial activity against Plasmodium falciparum TM91C235 assessed as level of pfmdr1 mRNA expression organism selected on 80 ng/ml of compound by quantitative real-time RT-PCR with respect to wild type; assay type: functional
# Plasmodium falciparum [22] = assay: Antimalarial activity against Plasmodium falciparum W2 harboring 3 copy number of pfmdr1 gene organism selected at 50 ng/ml compound concentration; assay type: functional, organism-based
# Plasmodium falciparum [23] = assay: Antimalarial activity against Plasmodium falciparum W2 assessed as inhibition of [3H]hypoxanthine uptake organism selected on 80 ng/mL compound concentration; assay type: functional, organism-based
# Plasmodium falciparum [24] = assay: Antimalarial activity against Plasmodium falciparum W2 harboring 2 copy number of pfmdr1 gene organism selected at 200 ng/ml compound concentration; assay type: functional, organism-based
# Plasmodium falciparum [25] = assay: Antimalarial activity against Plasmodium falciparum W2 harboring 2 copy number of pfmdr1 gene organism selected at 40 ng/ml compound concentration; assay type: functional, organism-based
# Plasmodium falciparum [26] = assay: Antimalarial activity against Plasmodium falciparum W2 assessed as level of pfmdr1 mRNA expression organism selected on 40 ng/ml of compound by quantitative real-time RT-PCR with respect to wild type; assay type: functional
smiles,measurement,setting,value
C[C@@H]1[C@H](OCc2ccc(C(=O)O)cc2)O[C@@H]2O[C@@]3(C)CC[C@@H]4[C@@H](C)CC[C@@H]1[C@]24OO3 [ARTELINIC ACID],Activity,Plasmodium falciparum [1],Active
same,Activity,Plasmodium falciparum [2],inactive
same,IC50,Plasmodium falciparum [3],23.6 nM
same,IC90,Plasmodium falciparum [3],75.9 nM
same,IC50,Plasmodium falciparum [4],23.3 nM
same,IC90,Plasmodium falciparum [4],51.3 nM
same,Activity,Plasmodium falciparum [5],inactive
same,IC50,Plasmodium falciparum [6],33.7 nM
same,IC90,Plasmodium falciparum [6],53.5 nM
same,fold change (FC),Plasmodium falciparum [7],3
same,IC50,Plasmodium falciparum [8],4.37 nM
same,IC90,Plasmodium falciparum [8],7.45 nM
same,Activity,Plasmodium falciparum [9],inactive
same,IC50,Plasmodium falciparum [10],24.6 nM
same,IC90,Plasmodium falciparum [10],75.9 nM
same,Activity,Plasmodium falciparum [11],inactive
same,IC50,Plasmodium falciparum [12],11.1 nM
same,IC90,Plasmodium falciparum [12],23 nM
same,IC90,Plasmodium falciparum [13],21.8 nM
same,IC50,Plasmodium falciparum [14],34 nM
same,IC90,Plasmodium falciparum [14],81.3 nM
same,Activity,Plasmodium falciparum [15],inactive
same,Activity,Plasmodium falciparum [16],Active
same,Activity,Plasmodium falciparum [17],Active
same,Activity,Plasmodium falciparum [18],Active
same,Activity,Plasmodium falciparum [19],inactive
same,Activity,Plasmodium falciparum [20],inactive
same,fold change (FC),Plasmodium falciparum [21],2.1
same,Activity,Plasmodium falciparum [22],inactive
same,IC50,Plasmodium falciparum [23],22.8 nM
same,IC90,Plasmodium falciparum [23],56.8 nM
C[C@@H]1CC[C@H]2[C@@H](C)C(=O)O[C@@H]3O[C@@]4(C)CC[C@@H]1[C@]32OO4 [ARTEMISININ],Activity,Plasmodium falciparum [24],inactive
same,Activity,Plasmodium falciparum [25],inactive
same,fold change (FC),Plasmodium falciparum [26],2.2
